Assay type in all cases: in vivo
For test [1], the system named is Echinochloa crus-galli. Put plainly: Post-emergence herbicidal activity, ECHCG. To be noted: Application post-emergence, 1000 g/Ha, evaluated after 13 days, scale 0-5. The method, then:
(§1) Seeds of a variety of test species were sown in standard soil in pots. After 8 days cultivation (post-emergence) under controlled conditions in a glasshouse (at 24/16° C., day/night; 14 hours light; 65% humidity), the plants were sprayed with an aqueous spray solution derived from the formulation of the technical active ingredient in acetone/water (50:50) solution containing 0.5% Tween 20 (polyoxyethelyene sorbitan monolaurate, CAS RN 9005-64-5). The test plants were then grown in a glasshouse under controlled conditions (at 24/16° C., day/night; 14 hours light; 65% humidity) and watered twice daily. After 13 days, the test was evaluated (5=total damage to plant; 0=no damage to plant).

Test [2] has as its system Alopecurus myosuroides. Put plainly: Post-emergence herbicidal activity, ALOMY. The settings on record: Application post-emergence, 1000 g/Ha, evaluated after 13 days, scale 0-5. The method, then: as §1
For test [3], the system named is Setaria faberi. The test can be described thus: Post-emergence herbicidal activity, SETFA. To be noted: Application post-emergence, 1000 g/Ha, evaluated after 13 days, scale 0-5. The method, then:
as §1

Test [4] concerns Amaranthus retroflexus. Put plainly: Post-emergence herbicidal activity, AMARE. The settings on record: Application post-emergence, 1000 g/Ha, evaluated after 13 days, scale 0-5. The method, then:
as §1

Test [5] deals with Abutilon theophrasti. The test can be described thus: Pre-emergence herbicidal activity, ABUTH. To be noted: Application pre-emergence, 1000 g/Ha, evaluated after 13 days, scale 0-5. How it is done:
as §1, with “After” for “After 8 days”, “for one day (pre-emergence)” for “(post-emergence)”

The test system of test [6] is Zea mays. The test can be described thus: Pre-emergence herbicidal activity, ZEAMX. To be noted: Application pre-emergence, 1000 g/Ha, evaluated after 13 days, scale 0-5. The method, then: as §1, with “After” for “After 8 days”, “for one day (pre-emergence)” for “(post-emergence)”
Test [7] concerns Zea mays. The test can be described thus: Post-emergence herbicidal activity, ZEAMX. To be noted: Application post-emergence, 1000 g/Ha, evaluated after 13 days, scale 0-5. The method, then:
as §1

The test system of test [8] is Setaria faberi. The test can be described thus: Pre-emergence herbicidal activity, SETFA. The settings on record: Application pre-emergence, 1000 g/Ha, evaluated after 13 days, scale 0-5. How it is done: as §1, with “After” for “After 8 days”, “for one day (pre-emergence)” for “(post-emergence)”
Test [9] relates to Abutilon theophrasti. The test can be described thus: Post-emergence herbicidal activity, ABUTH. The settings on record: Application post-emergence, 1000 g/Ha, evaluated after 13 days, scale 0-5. How it is done:
as §1

Test [10] deals with Alopecurus myosuroides. Put plainly: Pre-emergence herbicidal activity, ALOMY. The settings on record: Application pre-emergence, 1000 g/Ha, evaluated after 13 days, scale 0-5. The method, then:
as §1, with “After” for “After 8 days”, “for one day (pre-emergence)” for “(post-emergence)”

The test system of test [11] is Amaranthus retroflexus. Put plainly: Pre-emergence herbicidal activity, AMARE. The settings on record: Application pre-emergence, 1000 g/Ha, evaluated after 13 days, scale 0-5. The method, then: as §1, with “After” for “After 8 days”, “for one day (pre-emergence)” for “(post-emergence)”
Test [12] relates to Echinochloa crus-galli. Put plainly: Pre-emergence herbicidal activity, ECHCG. To be noted: Application pre-emergence, 1000 g/Ha, evaluated after 13 days, scale 0-5. How it is done: as §1, with “After” for “After 8 days”, “for one day (pre-emergence)” for “(post-emergence)”

Data on 11 compounds can be found in patent publication US20160251332A1, “Herbicidal Compounds” (SYNGENTA PARTICIPATIONS AG, priority 2013, published 2016).

Turning to `CN1CC(O)N(c2cc(C(F)(F)F)ccn2)C1=O` (stereo not drawn) [Compound A1, 4-hydroxy-1-methyl-3-[4-(trifluoromethyl)-2-pyridyl]imidazolidin-2-one], the ECHCG damage score in the test on Echinochloa crus-galli [1] and in the test with Echinochloa crus-galli [12] was 5 in each case. Also, the ALOMY damage score with Alopecurus myosuroides [2] is 5; with Alopecurus myosuroides [10] it was 4. The SETFA damage score came to 5 in the test with Setaria faberi [3] and 4 in the test on Setaria faberi [8]. Also, the AMARE damage score with Amaranthus retroflexus [4] and in the test on Amaranthus retroflexus [11] was 5 each time. Further, the ABUTH damage score in the test on Abutilon theophrasti [5] and in the test with Abutilon theophrasti [9] was 5 in each case. The values for the ZEAMX damage score in the test with Zea mays [6] and in the test with Zea mays [7] were 3 and 5, respectively.

With `COc1ccc(-c2cnc(N3C(=O)N(C)CC3O)cc2C(F)(F)F)c(OC)c1` (stereo not drawn) [Compound A15], the ECHCG damage score in the test with Echinochloa crus-galli [1] was 4; in the test on Echinochloa crus-galli [12] it was 1. Further, the ALOMY damage score with Alopecurus myosuroides [2] amounted to 3; in the test on Alopecurus myosuroides [10], 1. For the same compound, the values for the SETFA damage score with Setaria faberi [3] and in the test on Setaria faberi [8] were 3 and 2, respectively. Further, the values for the AMARE damage score in the test on Amaranthus retroflexus [4] and in the test with Amaranthus retroflexus [11] were 5 and 2, respectively. The ABUTH damage score in the test with Abutilon theophrasti [5] amounted to 3; with Abutilon theophrasti [9] it was 5. Moreover, the ZEAMX damage score was determined as 0 in the test on Zea mays [6] and 1 in the test on Zea mays [7].

For the compound `CN1CC(O)N(c2cc(C(F)(F)F)c(-c3ccsc3)cn2)C1=O` (stereo not drawn) [Compound A4, 4-hydroxy-1-methyl-3-[5-(3-thienyl)-4-(trifluoromethyl)-2-pyridyl]imidazolidin-2-one], the ECHCG damage score with Echinochloa crus-galli [1] is 5; with Echinochloa crus-galli [12], 4. The values for the ALOMY damage score in the test on Alopecurus myosuroides [2] and with Alopecurus myosuroides [10] were 4 and 3, respectively. Besides, the SETFA damage score is 5 in the test on Setaria faberi [3] and 3 in the test with Setaria faberi [8]. Also, the AMARE damage score in the test on Amaranthus retroflexus [4] and in the test with Amaranthus retroflexus [11] was 5 in each case. Also, the values for the ABUTH damage score with Abutilon theophrasti [5] and with Abutilon theophrasti [9] were 2 and 5, respectively. Moreover, the figures for the ZEAMX damage score with Zea mays [6] and in the test with Zea mays [7] were 2 and 0, respectively.

In the case of `Cc1cnc(N2C(=O)N(C)CC2O)cc1C(F)(F)F` (stereo not drawn) [Compound A40], the ECHCG damage score in the test with Echinochloa crus-galli [1] and in the test on Echinochloa crus-galli [12] was 5 each time. For the same compound, the ALOMY damage score is 5 in the test on Alopecurus myosuroides [2] and 4 in the test with Alopecurus myosuroides [10]. Moreover, the results for the SETFA damage score in the test with Setaria faberi [3] and in the test with Setaria faberi [8] were 5 and 4, respectively. Moreover, the AMARE damage score with Amaranthus retroflexus [4] and in the test with Amaranthus retroflexus [11] was 5 in each case. The ABUTH damage score in the test on Abutilon theophrasti [5] and with Abutilon theophrasti [9] was 5 throughout. The ZEAMX damage score in the test with Zea mays [6] and with Zea mays [7] was 4 each time.

With `CN(C)C(=O)c1cccc(-c2cnc(N3C(=O)N(C)CC3O)cc2C(F)(F)F)c1` (stereo not drawn) [Compound A12], the ECHCG damage score in the test on Echinochloa crus-galli [1] came out at 2; with Echinochloa crus-galli [12], 1. For the same compound, the ALOMY damage score in the test on Alopecurus myosuroides [2] came to 2; in the test with Alopecurus myosuroides [10], 0. For the same compound, the SETFA damage score is 5 with Setaria faberi [3] and 1 in the test on Setaria faberi [8]. The AMARE damage score is 5 in the test on Amaranthus retroflexus [4] and 1 with Amaranthus retroflexus [11]. The results for the ABUTH damage score in the test with Abutilon theophrasti [5] and with Abutilon theophrasti [9] were 3 and 5, respectively. For the same compound, the ZEAMX damage score in the test on Zea mays [6] worked out at 0; with Zea mays [7] it was 2.

Turning to `Cc1ccccc1-c1cnc(N2C(=O)N(C)CC2O)cc1C(F)(F)F` (stereo not drawn) [Compound A7], the ECHCG damage score was 5 with Echinochloa crus-galli [1] and 1 with Echinochloa crus-galli [12]. Moreover, the ALOMY damage score with Alopecurus myosuroides [2] amounted to 4; in the test with Alopecurus myosuroides [10], 1. Also, the values for the SETFA damage score in the test on Setaria faberi [3] and in the test on Setaria faberi [8] were 5 and 1, respectively. For the same compound, the AMARE damage score came to 5 with Amaranthus retroflexus [4] and 3 in the test on Amaranthus retroflexus [11]. Moreover, the ABUTH damage score stood at 2 in the test with Abutilon theophrasti [5] and 5 in the test on Abutilon theophrasti [9]. Also, the ZEAMX damage score in the test on Zea mays [6] stood at 1; with Zea mays [7], 3.

Turning to `CN1CC(O)N(c2cc(C(F)(F)F)c(Br)cn2)C1=O` (stereo not drawn) [Compound A19], the ECHCG damage score with Echinochloa crus-galli [1] and in the test on Echinochloa crus-galli [12] was 5 each time. Moreover, the ALOMY damage score with Alopecurus myosuroides [2] and with Alopecurus myosuroides [10] was 5 each time. The SETFA damage score in the test with Setaria faberi [3] and in the test on Setaria faberi [8] was 5 in each case. Besides, the AMARE damage score in the test on Amaranthus retroflexus [4] and in the test on Amaranthus retroflexus [11] was 5 throughout. The ABUTH damage score in the test on Abutilon theophrasti [5] and in the test on Abutilon theophrasti [9] was 5 each time. Besides, the figures for the ZEAMX damage score in the test with Zea mays [6] and in the test with Zea mays [7] were 5 and 4, respectively.

Regarding `CN1CC(O)N(c2cc(C(F)(F)F)c(-c3ccc(C#N)s3)cn2)C1=O` (stereo not drawn) [Compound A14], the ECHCG damage score with Echinochloa crus-galli [1] is on record as 5; in the test with Echinochloa crus-galli [12] it was 3. The ALOMY damage score in the test on Alopecurus myosuroides [2] is 4; in the test with Alopecurus myosuroides [10], 2. The SETFA damage score stood at 5 with Setaria faberi [3] and 2 in the test with Setaria faberi [8]. The AMARE damage score with Amaranthus retroflexus [4] and in the test with Amaranthus retroflexus [11] was 5 each time. Also, the ABUTH damage score with Abutilon theophrasti [5] amounted to 3; with Abutilon theophrasti [9], 5. The ZEAMX damage score in the test on Zea mays [6] was found to be 2; in the test with Zea mays [7], 3.

Regarding `COc1ccccc1-c1cnc(N2C(=O)N(C)CC2O)cc1C(F)(F)F` (stereo not drawn) [Compound A18], the ECHCG damage score is recorded as 4 in the test on Echinochloa crus-galli [1] and 3 with Echinochloa crus-galli [12]. In addition, the ALOMY damage score in the test on Alopecurus myosuroides [2] and in the test with Alopecurus myosuroides [10] was 2 throughout. Moreover, the figures for the SETFA damage score with Setaria faberi [3] and in the test with Setaria faberi [8] were 2 and 1, respectively. For the same compound, the AMARE damage score with Amaranthus retroflexus [4] stood at 5; in the test on Amaranthus retroflexus [11], 2. Further, the ABUTH damage score with Abutilon theophrasti [5] stood at 2; with Abutilon theophrasti [9], 5. For the same compound, the results for the ZEAMX damage score in the test on Zea mays [6] and in the test on Zea mays [7] were 1 and 5, respectively.

For the compound `CN1CC(O)N(c2cc(C(F)(F)F)c(-c3cccc(S(=O)(=O)N(C)C)c3)cn2)C1=O` (stereo not drawn) [Compound A10], the ECHCG damage score with Echinochloa crus-galli [1] and in the test with Echinochloa crus-galli [12] was 5 in each case. Further, the values for the ALOMY damage score with Alopecurus myosuroides [2] and in the test with Alopecurus myosuroides [10] were 5 and 4, respectively. Also, the SETFA damage score in the test on Setaria faberi [3] turned out to be 5; in the test on Setaria faberi [8], 4. Moreover, the AMARE damage score with Amaranthus retroflexus [4] and in the test on Amaranthus retroflexus [11] was 5 each time. Moreover, the ABUTH damage score with Abutilon theophrasti [5] and in the test with Abutilon theophrasti [9] was 5 in each case. Besides, the ZEAMX damage score in the test with Zea mays [6] came to 3; in the test with Zea mays [7], 4.

On to `CN1CC(O)N(c2cc(C(F)(F)F)c(-c3ccc(C#N)cc3)cn2)C1=O` (stereo not drawn) [Compound A16], for which the ECHCG damage score in the test with Echinochloa crus-galli [1] is given as 5; in the test on Echinochloa crus-galli [12] it was 3. Further, the ALOMY damage score in the test on Alopecurus myosuroides [2] is 5; with Alopecurus myosuroides [10], 2. Besides, the SETFA damage score with Setaria faberi [3] came to 5; with Setaria faberi [8], 4. Also, the AMARE damage score in the test with Amaranthus retroflexus [4] and with Amaranthus retroflexus [11] was 5 each time. Also, the ABUTH damage score in the test on Abutilon theophrasti [5] is reported as 3; in the test with Abutilon theophrasti [9], 5. The ZEAMX damage score with Zea mays [6] turned out to be 3; in the test with Zea mays [7], 5.
